In US9833497B2, “Human originated EGF domain proteins and use of the same” (CHENGDU SOURCEBIO LIMITED-LIABILITY COMPANY, priority 2013, dated 2017):

What was measured:
Format in all cases: cell-based
[1] = system: E. coli DH5α; assay: Antibacterial activity: MIC and growth curve against E. coli DH5α in 96-well plate; conditions: minimal inhibitory concentration against E. coli DH5α; 96-well plate, 5×10^5 CFU/mL, 37° C., judged after 8 h
How it was run: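 MIC taken as lowest protein level with no bacterial growth, tracked by A600 every 30 min during 37 °C, 175 rpm culture. Two-fold protein series 50-12.5 μg/mL final, triplicate wells, against 5×10^5 CFU/mL of LB-washed mid-log cells.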

[2] = system: E. coli BL21; assay: MIC against Gram-negative bacteria: E. coli BL21; conditions: 5×10^5 CFU/mL
How it was run: (§1)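 Bacteria grown in LB at 37° C with shaking to McFarland 0.5, pelleted and resuspended in fresh LB, then seeded at 5×10^5 CFU/mL per well. Purified recombinant human EGF domain proteins were two-fold serially diluted in triplicate and plates shaken at 37° C, 175 rpm. MIC is the lowest protein concentration with no bacterial growth.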

[3] = system: Pseudomonas aeruginosa; assay: MIC against Gram-negative bacteria: Pseudomonas aeruginosa; conditions: 5×10^5 CFU/mL
How it was run: as §1

[4] = system: Klebsiella pneumonia; assay: MIC against Gram-negative bacteria: Klebsiella pneumonia; conditions: 5×10^5 CFU/mL
How it was run: as §1

[5] = system: Enterobacter cloacae; assay: MIC against Gram-negative bacteria: Enterobacter cloacae; conditions: 5×10^5 CFU/mL
How it was run: as §1

[6] = system: Aeromonas hydrophila; assay: MIC against Gram-negative bacteria: Aeromonas hydrophila; conditions: 5×10^5 CFU/mL
How it was run: as §1

[7] = system: Citrobacter diversus; assay: MIC against Gram-negative bacteria: Citrobacter diversus; conditions: 5×10^5 CFU/mL
How it was run: as §1

[8] = system: Moraxella catarrhalis; assay: MIC against Gram-negative bacteria: Moraxella catarrhalis; conditions: 5×10^5 CFU/mL
How it was run: as §1

[9] = system: Proteus mirabilis; assay: MIC against Gram-negative bacteria: Proteus mirabilis; conditions: 5×10^5 CFU/mL
How it was run: as §1

[10] = system: Proteus vulgaris; assay: MIC against Gram-negative bacteria: Proteus vulgaris; conditions: 5×10^5 CFU/mL
How it was run: as §1

[11] = system: Serratia marcescens; assay: MIC against Gram-negative bacteria: Serratia marcescens; conditions: 5×10^5 CFU/mL
How it was run: as §1

[12] = E. coli BL21, 10 h cultivation at 37° C.
[13] = P. aeruginosa, 10 h cultivation at 37° C.
[14] = K. pneumonia, 10 h cultivation at 37° C.
[15] = E. cloacae, 10 h cultivation at 37° C.
[16] = A. hydrophila, 10 h cultivation at 37° C.
[17] = C. diversus, 10 h cultivation at 37° C.
[18] = M. catarrhalis, 10 h cultivation at 37° C.
[19] = P. mirabilis, 10 h cultivation at 37° C.
[20] = P. vulgaris, 10 h cultivation at 37° C.
[21] = S. marcescens, 10 h cultivation at 37° C.
[22] = E. coli BL21, 96-well plate, 37° C., 10 h
[23] = Pseudomonas aeruginosa, 96-well plate, 37° C., 10 h
[24] = Klebsiella pneumonia, 96-well plate, 37° C., 10 h
[25] = Enterobacter cloacae, 96-well plate, 37° C., 10 h
[26] = Aeromonas hydrophila, 96-well plate, 37° C., 10 h
[27] = Citrobacter diversus, 96-well plate, 37° C., 10 h
[28] = Moraxella catarrhalis, 96-well plate, 37° C., 10 h
[29] = Proteus mirabilis, 96-well plate, 37° C., 10 h
[30] = Proteus vulgaris, 96-well plate, 37° C., 10 h
[31] = Serratia marcescens, 96-well plate, 37° C., 10 h

Substance: PRT1465 (CECDSLGTLPGTICDPISGQCLCVPNRQGRRCNQCQPGFYISPGNATGCLP; listed as Homo sapiens)
- MIC [1]: 12.5 µg/mL
- MIC against E. coli BL21 [2, 12]: 25 µg/mL
- MIC against P. aeruginosa ([3]; Pseudomonas aeruginosa, 10 h cultivation at 37° C.): 50 µg/mL
- MIC against K. pneumonia ([4]; Klebsiella pneumonia, 10 h cultivation at 37° C.): 12.5 µg/mL
- MIC against E. cloacae ([5]; Enterobacter cloacae, 10 h cultivation at 37° C.): 25 µg/mL
- MIC against A. hydrophila ([6]; Aeromonas hydrophila, 10 h cultivation at 37° C.): 50 µg/mL
- MIC against C. diversus ([7]; Citrobacter diversus, 10 h cultivation at 37° C.): 25 µg/mL
- MIC against M. catarrhalis ([8]; Moraxella catarrhalis, 10 h cultivation at 37° C.): 12.5 µg/mL
- MIC against P. mirabilis ([9]; Proteus mirabilis, 10 h cultivation at 37° C.): 50 µg/mL
- MIC against P. vulgaris ([10]; Proteus vulgaris, 10 h cultivation at 37° C.): 25 µg/mL
- MIC against S. marcescens ([11]; Serratia marcescens, 10 h cultivation at 37° C.): 12.5 µg/mL

Substance: PRT784 (FGKNCAGICTCTNNGTCNPIDRSCQCYPGWIGSDCS; listed as Homo sapiens)
- MIC [1]: 50 µg/mL
- MIC (μg/mL) E. coli BL21 [2, 12]: 25 µg/mL
- MIC (μg/mL) P. aeruginosa [3, 13]: 12.5 µg/mL
- MIC (μg/mL) K. pneumonia [4, 14]: 50 µg/mL
- MIC (μg/mL) E. cloacae [5, 15]: 12.5 µg/mL
- MIC (μg/mL) A. hydrophila [6, 16]: 50 µg/mL
- MIC (μg/mL) C. diversus [7, 17]: 12.5 µg/mL
- MIC (μg/mL) M. catarrhalis [8, 18]: 50 µg/mL
- MIC (μg/mL) P. mirabilis [9, 19]: 12.5 µg/mL
- MIC (μg/mL) P. vulgaris [10, 20]: 50 µg/mL
- MIC (μg/mL) S. marcescens [11, 21]: 12.5 µg/mL

Substance: PRT560 (GSCHPAGLAPVDPALPEAQVPCMCRAHVEGPSCDRCKPGFWGLSPSNPEGCTR; listed as Homo sapiens)
- MIC [1]: 12.5 µg/mL
- MIC against E. coli BL21 ([2]; 96-well plate, 37° C., 10 h): 25 µg/mL
- MIC against P. aeruginosa ([3]; 96-well plate, 37° C., 10 h): 50 µg/mL
- MIC against K. pneumonia ([4]; 96-well plate, 37° C., 10 h): 25 µg/mL
- MIC against E. cloacae ([5]; 96-well plate, 37° C., 10 h): 50 µg/mL
- MIC against A. hydrophila ([6]; 96-well plate, 37° C., 10 h): 25 µg/mL
- MIC against C. diversus ([7]; 96-well plate, 37° C., 10 h): 50 µg/mL
- MIC against M. catarrhalis ([8]; 96-well plate, 37° C., 10 h): 25 µg/mL
- MIC against P. mirabilis ([9]; 96-well plate, 37° C., 10 h): 50 µg/mL
- MIC against P. vulgaris ([10]; 96-well plate, 37° C., 10 h): 50 µg/mL
- MIC against S. marcescens ([11]; 96-well plate, 37° C., 10 h): 50 µg/mL

Substance: PRT1283 (NTDDCVDHACANGGVCVDGVGNYTCQCPLQYEGKACE; listed as Homo sapiens)
- MIC [1]: 12.5 µg/mL
- MIC against E. coli BL21 [2, 22]: 50 µg/mL
- MIC against P. aeruginosa [3, 23]: 12.5 µg/mL
- MIC against K. pneumonia [4, 24]: 50 µg/mL
- MIC against E. cloacae [5, 25]: 12.5 µg/mL
- MIC against A. hydrophila [6, 26]: 12.5 µg/mL
- MIC against C. diversus [7, 27]: 50 µg/mL
- MIC against M. catarrhalis [8, 28]: 12.5 µg/mL
- MIC against P. mirabilis [9, 29]: 25 µg/mL
- MIC against P. vulgaris [10, 30]: 12.5 µg/mL
- MIC against S. marcescens [11, 31]: 25 µg/mL

Substance: PRT34 (ACHPGFYGPDCKLRCSCNNGEMCDRFQGCLCSPGWQGLQCE; listed as Homo sapiens)
- MIC [1]: 100 µg/mL
- MIC (μg/mL) E. coli BL21 [2, 22]: 25 µg/mL
- MIC (μg/mL) P. aeruginosa [3, 23]: 25 µg/mL
- MIC (μg/mL) K. pneumonia [4, 24]: 12.5 µg/mL
- MIC (μg/mL) E. cloacae [5, 25]: 12.5 µg/mL
- MIC (μg/mL) A. hydrophila [6, 26]: 25 µg/mL
- MIC (μg/mL) C. diversus [7, 27]: 25 µg/mL
- MIC (μg/mL) M. catarrhalis [8, 28]: 12.5 µg/mL
- MIC (μg/mL) P. mirabilis [9, 29]: 12.5 µg/mL
- MIC (μg/mL) P. vulgaris [10, 30]: 25 µg/mL
- MIC (μg/mL) S. marcescens [11, 31]: 12.5 µg/mL

Substance: PRT853 (DLNECGLKPRPCKHRCMNTYGSYKCYCLNGYMLMPDGSCS; listed as Homo sapiens)
- MIC [1]: 25 µg/mL
- MIC (μg/mL) E. coli BL21 [2, 12]: 12.5 µg/mL
- MIC (μg/mL) P. aeruginosa [3, 13]: 25 µg/mL
- MIC (μg/mL) K. pneumonia [4, 14]: 50 µg/mL
- MIC (μg/mL) E. cloacae [5, 15]: 25 µg/mL
- MIC (μg/mL) A. hydrophila [6, 16]: 12.5 µg/mL
- MIC (μg/mL) C. diversus [7, 17]: 25 µg/mL
- MIC (μg/mL) M. catarrhalis [8, 18]: 50 µg/mL
- MIC (μg/mL) P. mirabilis [9, 19]: 25 µg/mL
- MIC (μg/mL) P. vulgaris [10, 20]: 25 µg/mL
- MIC (μg/mL) S. marcescens [11, 21]: 12.5 µg/mL
